# Test results as given in patent US20080213743A1, “Method for adjusting sedimentation rates” (priority 2007, published 2008).
# Tested on: bone marrow aspirate
# Assay: Centrifugal fractionation of bone marrow aspirate with the whole-blood platelet rich plasma protocol; analysis of ten milliliter concentrate sample
# Assay type: cell-based
# Details: 60 mls bone marrow aspirate collected into heparin, 8-10 mls of ACD added or heparin alone, two centrifugations
# Method: In one specific example of the invention, 60 mls of bone marrow aspirate is collected into a bag or syringe having heparin as the anticoagulant. A bag is preferred to be able to inspect the collected marrow. Then, 8-10 mls of ACD are added to the collected aspirate to adjust the sedimentation rate of the components, particularly the red blood cells. The aspirate mixture is then placed in the first chamber of a two-chamber processing unit and subjected to centrifugation according to a known protocol designed to fractionate whole blood for the purpose of making platelet rich plasma as described in U.S. Pat. No. 6,398,972. The supernatant is then decanted to the second chamber and again subjected to centrifugation according to the said process designed to separate platelets to make platelet rich plasma. Supernatant from the second centrifugation is withdrawn to leave a ten milliliter concentrate sample remaining in the chamber. […] In contrast, when same process is followed with heparin alone, the sample is 3% Hct with a TNC of 32.4×10^3/μl.
substance,measurement,value
heparin,Hct of concentrate sample,3 % Hct
same,total nucleated cell count (TNC) of concentrate sample,32400 µL⁻¹
